Columns and labels:
[1] = test system: GA RS-specific T cells; assay: In vitro potency test: IL-2 secretion by GA RS-specific LN cells, ELISA, % potency relative to GA RS; type: cell-based, female (SJLXBALB/C)F1 mice; details: for Response of GA RS-specific T cells (IL-2 secretion), in words: primary culture of LN cells from mice immunized with 250 μg GA RS in CFA; for % Potency: specificity of GA RS-specific LN cells, antigens incubated overnight
Description: Mice were immunized with 250 μg GA RS in CFA. GA RS was produced as described in U.S. Pat. No. 5,800,808 or PCT International Publication No. WO 00/05250. The GA RS was chosen based on the chemical and biological properties being in the midrange of Copaxone® as described above. After 9-11 days, a primary culture of LN cells was prepared, and the cells were incubated with various concentrations of GA RS and with test samples. Following 18-21 hours of incubation at 37° C. in a humidified CO2 incubator, the culture media were collected and the level of IL-2 was measured by ELISA. The T-cell response to each DS batch were tested at two concentrations (within the linear range), and the % potency of the DS batch was calculated relative to that of the GA RS batch.
The GA RS emulsion was transferred into an insulin syringe. Then, 100 μl of the emulsion (250 μg GA per mouse) were injected into four footpads of each naive mouse (about 25 μl into each footpad). The immunized mice were used for the in vitro test 9-11 days following immunization.
The UV lamp was turned on 20 minutes before commencing work in the laminar hood and turned off when work began. Prior to placing any reagents under the hood, the working surface was cleaned with a 70% ethanol solution. Enriched DCCM1 medium was prepared. The enriched DCCM1 and the RPMI medium were pre-warmed at 37° C. prior to use. The mice were sacrificed by cervical dislocation. Each mouse was placed on its back and fastened to a support platform. The abdomen was sprayed with 70% alcohol and a middle incision was made (a 2 cm-long incision was usually sufficient). The skin was intersected towards the hind legs and LN was located from the hind and forelegs. The LN was transferred into a sterile petri dish containing about 5 ml sterile RPMI medium and the LN cells were teased out by a sterile syringe plunger. The sterile syringe was used to collect the cells' suspension from the petri dish (the collection of tissue debris was avoided by using sterile needles). The cells' suspension were transferred into a 50 ml sterile tube.
The cells were centrifuged at 200×g for 10 minutes at room temperature. The cells were re-suspended to a density of 1×10^7 cells/ml with enriched DCCM1.
The in vitro bioassay was performed in a 24-well, flat-bottomed tissue culture test plate at a final volume of 1 ml.
About 10-20 mg of, GA DS from the batch to be tested was weighed accurately and dissolved with ddH2O to 1.2 mg/ml. The OD minus blank of the solution was measured at 275 nm. The OD of the sample was adjusted to approx. 1.03 with ddH2O to obtain a stock solution of 1 mg/ml of GA. The stock solution of 100 μg/ml was prepared with enriched DCCM1 and filtered through a 0.2μ cellulose acetate filter. The stock solution was diluted to 10 and 20 μg/ml as described in Table 2 for the RS batch.
0.5 ml of each GA RS dilution, thus the final concentrations of GA RS in the wells were 25, 15, 10, 5, 2.5 and 1 μg/ml.
0.5 ml of each sample dilution, thus the final concentrations of the test sample in the well were 5 and 10 μg/ml.
The density of the cells was changed depending upon their response to GA. The cultures were kept at 37° C. in a humidified 5% CO2 incubator for 18-21 hrs. The plate was centrifuged at 200×g for 10 minutes at room temperature. The supernatants were collected into cryotubes. The supernatants were divided into working aliquots to avoid repeated freezing/thawing of the samples. The supernatants were stored at −20° C. for up to one week. The hood was cleaned with 70% ethanol solution and dried with Kim wipes. The gloves were removed and the hands were immediately washed with disinfectant.
All samples were tested in triplicate. […]

[2] = test system: EAE; details: 250 μg/mouse of GA in CFA; this mouse strain
Description: The control group in this experiment was injected with CFA alone. Ten days following immunization, LN cells were removed from the both groups of mice.

[3] = test system: exacerbating-remitting multiple sclerosis; details: daily subcutaneous injections (Johnson, 1987); cited from earlier work
[4] = test system: experimental autoimmune encephalomyelitis (EAE); details: various animal species (Lando et al., 1979; Aharoni, 1993); cited from earlier work

Lysozyme: a non-relevant basic protein
Response of GA RS-specific T cells (IL-2 secretion), in words [1]: not recognized | % Potency [1]: 0%

OC[C@@H](O)[C@@H](O)[C@H](O)[C@H](O)CO [mannitol]
Response of GA RS-specific T cells (IL-2 secretion), in words [1]: did not affect or interfere

L-glutamic acid polymer with L-alanine, L-lysine and L-tyrosine, acetate (salt) [GA]
blocking of EAE [2]: at least 80% | progression of disability [3]: slow progression of disability | relapse rate [3]: reduce the relapse rate | suppression of EAE [4]: suppress

MBP pp.87-99: the MBP immunodominant peptide pp. 87-99 (an encephalitogenic peptide) (SRPHLIRLFSRDA; UniProt P02686 87-99, looked up, fragment)
Response of GA RS-specific T cells (IL-2 secretion), in words [1]: did not respond | % Potency [1]: 0%

B1: Human MBP: human MBP (myelin basic protein) (protein, UniProt P02686 1-304, looked up)
Myelin basic protein: MGNHAGKRELNAEKASTNSETNRGESEKKRNLGELSRTTSEDNEVFGEADANQNNGTSSQDTAVTDSKRTADPKNAWQDAHPADPGSRPHLIRLFSRDAPGREDNTFKDRPSESDELQTIQEDSAATSESLDVMASQKRPSQRHGSKYLATASTMDHARHGFLPRHRDTGILDSIGRFFGGDRGAPKRGSGKDSHHPARTAHYGSLPQKSHGRTQDENPVVHFFKNIVTPRTPPPSQGKGRGLSLSRFSWGAEGQRPGFGYGGRASDYKSAHKGFKGVDAQGTLSKIFKLGGRDSRSGSPMARR
Response of GA RS-specific T cells (IL-2 secretion), in words [1]: did not respond | % Potency [1]: 0%

— patent US7429374B2, “Process for the measurement of the potency of glatiramer acetate” (Teva Pharmaceutical Industries, Ltd., priority 2001, dated 2008)
